Target: T1, adenosine receptor (Rattus norvegicus, UniProt P25099)
T1 sequence (P25099 1-326): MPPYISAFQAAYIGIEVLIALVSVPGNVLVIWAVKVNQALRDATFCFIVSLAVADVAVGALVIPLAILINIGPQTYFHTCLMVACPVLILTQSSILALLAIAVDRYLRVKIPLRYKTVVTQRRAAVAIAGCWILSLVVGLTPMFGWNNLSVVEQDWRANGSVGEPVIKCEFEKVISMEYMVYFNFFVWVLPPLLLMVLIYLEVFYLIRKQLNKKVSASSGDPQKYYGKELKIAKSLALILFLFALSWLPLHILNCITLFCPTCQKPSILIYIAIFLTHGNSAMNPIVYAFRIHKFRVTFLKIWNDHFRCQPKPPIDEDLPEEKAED
Test: Binding of monoclonal anti-idiotypic antibodies to adenosine receptor preparation and rabbit anti-CPA
Details: adenosine receptor preparation from rat brain
Description: Protocols for immunization and fusion were essentially identical to that described previously for BisQ in Example 2. Immunization was effected with the RSA conjugate, but the BSA conjugate is just as satisfactory. Screening was conducted with the BSA conjugate and with a specifically purified rabbit antibody raised by immunization with the BSA conjugate. Specifically purified antibody was prepared in a manner analogous to that described for anti-BisQ antibody (1) except that the immunoadsorbent was N^6 -(carboxypentamethylene) adenosine linked to aminohexylsepharose (Pharmacia).

## OC[C@H]1O[C@@H](n2cnc3c(NC4CCCCC4)ncnc32)[C@H](O)[C@@H]1O [N^6 -cyclohexyladenosine]
  inhibition of the reaction of monoclonal anti-idiotypic antibodies with adenosine receptor: could be inhibited

From patent US5144010A, “Method of producing monoclonal auto-anti-idiotypic antibodies” (The Trustees of Columbia University in the City of New York, priority 1989, dated 1992)
